Data from patent publication US9161922B2, “Amine oxidase inhibitors” (Case Western Reserve University, priority 2005, dated 2015).
Like-named read-outs stand apart in the source and are kept apart here.

Experiments:
Format in all cases: biochemical
[1] = target: arthrobacter globiformis amine oxidase (AGAO) (Arthrobacter globiformis, UniProt P46881); test: Arthrobacter globiformis amine oxidase inhibition
Experimental: (§1) In the following Examples, 0.9 mL aliquots of a solution of candidate inhibitor in 100 mM potassium phosphate buffer, pH 7.2 was mixed bovine plasma amine oxidase (0.1 mL, about […]) and incubated at 30° C. aerobically. Aliquots (0.1 mL) were periodically withdrawn using disposable calibrated Drummond micropipettes and diluted with 1.0 mL of benzylamine (5 mM in 50 mM sodium phosphate buffer, pH 7.2) in a 1 cm quartz cuvette (1.5 mL volume). The rate of oxidation of benzylamine to benzaldehyde was measured by recording the increase in absorbance at 250 nm for 1 minute and compared to the rate of benzylamine oxidation in a companion control solution of enzyme without inhibitor. The concentration of active BPAO was estimated from the rate of benzylamine oxidation. Inhibitory potency values (IC50 values) and partition values for inactivation of BPAO were measured at various times as in indicated in the Tables. IC50 values for lysyl oxidase (LO), arthrobacter globoformis amine oxidase (AGAO) and pichia pastoris lysyl oxidase (PPLO) were also measured in a similar manner.

lysyl oxidase (LO) = lysyl oxidase (LO) (Homo sapiens (Human), UniProt P28300); test: Lysyl oxidase inhibition; details: for IC75: 20 min, assay performed at Boston University; for IC50 (BPAO)/IC75(LO): ratio BPAO over LO
Experimental: as §1

[2] = target: pichia pastoris lysyl oxidase (PPLO) (Komagataella pastoris (Yeast) (Pichia pastoris), UniProt Q96X16); test: Pichia pastoris lysyl oxidase inhibition; details: 30 min
Experimental: as §1

[3] = target: bovine plasma amine oxidase (BPAO) (Bos taurus (Bovine), UniProt Q29437); test: Inactivation of bovine plasma amine oxidase (benzylamine oxidation rate, absorbance at 250 nm)
Experimental: The rate of oxidation of benzylamine to benzaldehyde was measured by recording the increase in absorbance at 250 nm for 1 minute and compared to the rate of benzylamine oxidation in a companion control solution of enzyme without inhibitor. The concentration of active BPAO was estimated from the rate of benzylamine oxidation. Inhibitory potency values (IC50 values) and partition values for inactivation of BPAO were measured at various times as in indicated in the Tables. IC50 values for lysyl oxidase (LO), arthrobacter globoformis amine oxidase (AGAO) and pichia pastoris lysyl oxidase (PPLO) were also measured in a similar manner.

Chain of lysyl oxidase (LO) (P28300 169-417, species assumed): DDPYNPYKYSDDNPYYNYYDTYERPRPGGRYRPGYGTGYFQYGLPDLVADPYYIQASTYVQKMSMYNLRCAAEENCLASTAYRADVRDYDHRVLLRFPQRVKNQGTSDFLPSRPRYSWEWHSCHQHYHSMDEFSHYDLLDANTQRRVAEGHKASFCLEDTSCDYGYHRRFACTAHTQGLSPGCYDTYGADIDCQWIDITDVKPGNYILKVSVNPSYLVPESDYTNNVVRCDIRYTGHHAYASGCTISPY
Chain of bovine plasma amine oxidase (BPAO) (Q29437 17-762): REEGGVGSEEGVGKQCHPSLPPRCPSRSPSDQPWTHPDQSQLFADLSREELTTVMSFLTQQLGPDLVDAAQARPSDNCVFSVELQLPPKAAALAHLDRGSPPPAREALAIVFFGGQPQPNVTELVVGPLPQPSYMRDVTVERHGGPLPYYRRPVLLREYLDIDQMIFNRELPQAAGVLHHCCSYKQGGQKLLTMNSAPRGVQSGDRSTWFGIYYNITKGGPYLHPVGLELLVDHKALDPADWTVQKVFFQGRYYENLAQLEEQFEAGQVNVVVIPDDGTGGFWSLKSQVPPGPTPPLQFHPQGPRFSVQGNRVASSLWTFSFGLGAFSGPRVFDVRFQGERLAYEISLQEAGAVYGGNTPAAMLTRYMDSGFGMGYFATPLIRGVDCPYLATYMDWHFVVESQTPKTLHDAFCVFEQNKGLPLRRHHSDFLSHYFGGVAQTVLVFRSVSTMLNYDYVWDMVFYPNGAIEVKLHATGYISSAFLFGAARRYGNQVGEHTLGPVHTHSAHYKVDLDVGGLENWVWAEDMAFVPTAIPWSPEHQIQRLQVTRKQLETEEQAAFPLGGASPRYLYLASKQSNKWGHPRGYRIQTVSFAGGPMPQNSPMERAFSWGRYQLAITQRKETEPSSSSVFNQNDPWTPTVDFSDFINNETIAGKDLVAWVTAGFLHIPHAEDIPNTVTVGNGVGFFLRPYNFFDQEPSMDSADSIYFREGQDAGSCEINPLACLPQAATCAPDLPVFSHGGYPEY
Chain of pichia pastoris lysyl oxidase (PPLO) (Q96X16 entry or part of it): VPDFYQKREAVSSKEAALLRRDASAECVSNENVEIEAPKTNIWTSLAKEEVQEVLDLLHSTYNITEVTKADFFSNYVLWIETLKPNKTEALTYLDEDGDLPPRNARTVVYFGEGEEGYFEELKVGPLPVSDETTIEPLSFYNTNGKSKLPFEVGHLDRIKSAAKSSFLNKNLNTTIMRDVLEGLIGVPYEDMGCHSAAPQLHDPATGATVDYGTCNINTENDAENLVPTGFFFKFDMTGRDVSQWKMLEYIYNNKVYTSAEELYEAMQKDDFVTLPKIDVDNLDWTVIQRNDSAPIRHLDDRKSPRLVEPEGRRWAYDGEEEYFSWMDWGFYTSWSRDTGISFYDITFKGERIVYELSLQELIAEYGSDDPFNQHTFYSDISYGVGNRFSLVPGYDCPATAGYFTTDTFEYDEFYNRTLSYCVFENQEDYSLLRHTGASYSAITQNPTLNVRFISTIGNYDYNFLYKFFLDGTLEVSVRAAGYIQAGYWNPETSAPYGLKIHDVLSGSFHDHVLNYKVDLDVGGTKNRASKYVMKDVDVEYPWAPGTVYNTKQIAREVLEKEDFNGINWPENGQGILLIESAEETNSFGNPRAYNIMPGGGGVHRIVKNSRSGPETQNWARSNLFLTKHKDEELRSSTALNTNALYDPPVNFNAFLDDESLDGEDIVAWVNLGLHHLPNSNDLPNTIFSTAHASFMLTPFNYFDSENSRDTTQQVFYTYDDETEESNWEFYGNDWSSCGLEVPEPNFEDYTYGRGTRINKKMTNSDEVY

CCN(CC)C(=O)C(N)CC#CCN (stereo not shown) [R = NEt2]
IC50 ([1]; determined on the basis of reversible competitive inhibition, read-out: IC50 (30 min) AGAO): 7 µM | IC75 (lysyl oxidase (LO)): 250 µM | IC50 (BPAO)/IC75(LO) (lysyl oxidase (LO)): 40 | IC50 [2]: 5000 µM | IC50 [3]: 10000 µM

CCOC(=O)CNC(=O)CNC(=O)C(N)CC#CCN (stereo not shown) [R = NHCH2CONHCH2COOEt]
IC50 ([1]; 30 min): 3500 µM | IC75 (lysyl oxidase (LO)): 650 µM | IC50 (BPAO)/IC75(LO) (lysyl oxidase (LO)): 0.14 | IC50 [3]: 90 µM

NCC#CCC(N)C(=O)NCCc1ccccc1 (stereo not shown) [R = NHCH2CH2Ph]
IC50 ([1]; 30 min): 250 µM | IC75 (lysyl oxidase (LO)): 450 µM | IC50 (BPAO)/IC75(LO) (lysyl oxidase (LO)): 1.11 | IC50 [3]: 1800 µM
